Experimental data from ChEMBL document CHEMBL1201862, “PubChem BioAssay data set” (2004).
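Assay format: 96-well plates, 48-hour exposure. At the GI50, growth is halved.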 Activity calls are given as the source filed them. No stated cut-off is given here; in the data, active = GI50 up to about 1.1 µM and inactive = higher.

Tests used:
Experiment in all cases: growth of human tumour cells (NCI), 48 h
KM-20L2 = tested on: KM-20L2
XF498 = tested on: XF498
DMS-273 = tested on: DMS-273
DMS-114 = tested on: DMS-114
M19-MEL = tested on: M19-MEL
RXF 631 = tested on: RXF 631
SNB-78 = tested on: SNB-78
DLD-1 = tested on: DLD-1
LXFL 529 = tested on: LXFL 529

Measured: GI50

C/C=C/C=C/[C@H]1Cc2cc(O)cc(O)c2O1
inactive: KM-20L2 62.4 µM | XF498 46.5 µM | DMS-273 28.9 µM | DMS-114 22.6 µM | M19-MEL 39.6 µM | RXF 631 62.4 µM | SNB-78 > 100 µM | DLD-1 82 µM | LXFL 529 27.4 µM

O=C1N=C(Nc2ccccc2Cl)SC1C(=O)Nc1ccc([N+](=O)[O-])cc1[N+](=O)[O-] (stereo not drawn)
inactive: KM-20L2 > 100 µM | XF498 > 100 µM | DMS-273 > 100 µM | DMS-114 75.3 µM | M19-MEL > 100 µM | RXF 631 > 100 µM | SNB-78 > 100 µM | DLD-1 > 100 µM | LXFL 529 > 100 µM

O=C(O)c1ccccc1[Se][Se]c1ccccc1C(=O)O
inactive: KM-20L2 25.8 µM | XF498 70 µM | DMS-273 66.1 µM | DMS-114 32.3 µM | M19-MEL 41.4 µM | RXF 631 28.4 µM | DLD-1 > 100 µM

O=c1[nH]c(=O)n(C2CC(O)C(CO)O2)cc1C#Cc1cc(F)cc(F)c1 (stereo not drawn)
inactive: KM-20L2 > 10 µM | XF498 > 100 µM | DMS-273 > 100 µM | DMS-114 > 100 µM | M19-MEL > 100 µM | RXF 631 > 100 µM | SNB-78 > 100 µM | DLD-1 > 100 µM | LXFL 529 > 100 µM

O=C1C=CC2(C=C1)C[C@H](NC(=O)OCc1ccccc1)C(=O)O2
inactive: KM-20L2 19 µM | XF498 17.8 µM | DMS-273 18.3 µM | DMS-114 20.3 µM | M19-MEL 18.4 µM | RXF 631 19.6 µM | SNB-78 24.5 µM | DLD-1 5.53 µM | LXFL 529 12.1 µM

COc1cc(/C=C(\NC(=O)c2ccccc2)c2nc3c(O)nc(S)nc3[nH]2)cc(OC)c1OC
inactive: KM-20L2 > 100 µM | XF498 > 100 µM | DMS-114 > 100 µM | M19-MEL > 100 µM | RXF 631 > 100 µM | SNB-78 > 100 µM | DLD-1 > 100 µM | LXFL 529 > 100 µM

[O-][S+]1Cc2ccccc2CS1 (stereo not drawn)
inactive: KM-20L2 25.3 µM | XF498 17.9 µM | DMS-273 14.2 µM | M19-MEL 17 µM | RXF 631 48.9 µM | SNB-78 14.7 µM | DLD-1 16.7 µM | LXFL 529 15.1 µM

CC(C)CS(=O)(=O)/C(=C(\c1ccc(Br)cc1)S(=O)(=O)CC(C)C)c1ccc(Br)cc1
inactive: KM-20L2 > 100 µM | XF498 > 100 µM | DMS-273 > 100 µM | M19-MEL > 100 µM | RXF 631 > 100 µM | SNB-78 97.7 µM | DLD-1 > 100 µM | LXFL 529 > 100 µM

O=C1C2=C(c3ccccc31)C(c1ccc(Cl)cc1)N1C(=O)CCSC1=N2 (stereo not drawn)
inactive: KM-20L2 > 100 µM | XF498 41.3 µM | DMS-273 > 100 µM | DMS-114 67.6 µM | M19-MEL > 100 µM | RXF 631 > 100 µM | DLD-1 > 100 µM | LXFL 529 53.2 µM

CS(=O)(=O)c1c(N)c2nc(Cl)cn2c2nc3ccccc3nc12
inactive: KM-20L2 > 100 µM | XF498 > 100 µM | DMS-273 > 100 µM | DMS-114 > 100 µM | M19-MEL > 100 µM | RXF 631 > 100 µM | SNB-78 > 100 µM | DLD-1 > 100 µM | LXFL 529 > 100 µM

COc1ccc(/C=C2\CCC(CCN(C)C)(C3=CCCC3)C2=O)cc1Br (stereo not drawn)
inactive: KM-20L2 1.59 µM | XF498 3.24 µM | DMS-273 3.78 µM | DMS-114 4.32 µM | M19-MEL 2.93 µM | RXF 631 14.7 µM | SNB-78 9.02 µM | DLD-1 5.13 µM | LXFL 529 4.71 µM
